# Results: PMC11645267, “Novel pharmacologic inhibition of lysine-specific demethylase 1 as a potential therapeutic for glioblastoma” (Cancer Gene Therapy, 2024)
# Key:
# [1] = system: GSC1228 intracranial xenograft; test: Intracranial xenograft mouse model inoculated with GSC1228 cells; assay type: in vivo, NOD/SCID mice
# Method: All experiments were performed under protocols approved by the Institutional Animal Care and Use Committee of Nagoya University of Graduate School of Medicine. Cells (1 × 10^5 cells per mouse) were injected intracranially into 6-week-old female NOD/SCID mice (n = 20, SLC, Shizuoka, Japan). Four weeks after the injection, S2172 or DMSO were intravenously injected five days a week for 3 weeks (10 mg/kg per day, 15 injections in total). We used established guidelines to determine the sample size for the mouse experiments. The mice were assigned randomly to experimental and control groups. There was no blinding applied in the experiment.
# We utilized intracranial xenograft mouse models inoculated with GSC1228 cells. After 30 days of inoculation, we administered S2172 intravenously at 10 mg/kg five times a week for three weeks. […] Following treatment with S2172 for one week, mice were sacrificed, and the xenograft glioma tissues were examined. The H3K4me2 level was increased in the tumor regions treated with S2172 (P < 0.01, Fig. 4B). Consistent with the in vitro analysis, the protein levels of Nestin and SOX2 were decreased in tumor tissues (Fig. 4C).
# Fig. 4 S2172 eradicates tumor cells in GSC brain tumor mouse model. A Tumor volume was assessed by MRI after treatment with either DMSO or S2172 for 15 times. Error bars represent the SD. *P < 0.05. n = 7. B H3K4me2 level in the tumor tissue from the mouse brain (left panel). Quantification of western blot band signal intensity (right panel). The y-axis in the panel indicates the relative signal intensity of each protein normalized to histone H3. […] Quantification of western blot band signal intensity (right panel). […]
# The density of bands was quantified using ImageJ software (https://imagej.nih.gov/ij/). […]
# When mice were scanned with MRI, mice were anesthetized with isoflurane (3% in air) and placed in MRS 3017 Benchtop MRI Systems (MR Solutions, Guildford, UK). Using MRI images, tumor volumes were obtained by compiling tumor areas from all slices that contained tumors and calculated by ImageJ software (https://imagej.nih.gov/ij/) {Towner, […]
# GSC1228 cells = test: ChIP-seq analysis of histone modifications; assay type: cell-based, human; settings: GSC1228, 5 μM, versus DMSO
# Method: Cells (1 × 10^6) were treated with 1% formaldehyde for 8 min to crosslink histones to DNA. After washing with cold PBS, cell pellets were lysed with lysis buffer (10 mM Tris-HCl, 0.25% Triton X-100, 10 mM EDTA, and 0.1 M NaCl). Cell nuclei were collected after centrifugation and re-suspended in SDS lysis buffer (1% SDS, 150 mM NaCl, 50 mM HEPES-KOH, 2 mM EDTA, 1% Triton X-100, and 0.1% sodium deoxycholate). Chromatin was sonicated using Covaris S220 (Covaris, Moburn, MA, USA). Lysates were incubated overnight with 50 μL of Dynabeads Protein G (Thermo Fisher Scientific) which were pre-coated with 4 μL of anti-H3K4me1 antibody (ab8895, Abcam, Cambridge, UK), 3 μL of anti-H3K4me2 antibody (#39141, Active Motif), 2.5 μL of anti-H3K4me3 antibody (#39159, Active Motif), 4 μL of anti-H3K9me2 antibody (ab1220, Abcam). The beads were washed and protein-DNA complexes were eluted with elution buffer (1% SDS, 10 mM EDTA, and 50 mM Tris-HCl) and then treated with RNase for 2 h at 37°C followed by proteinase K treatment overnight. DNA was extracted by the phenol/chloroform method, ethanol-precipitated and re-suspended in 0.1 × TE buffer. 10% of the lysate was treated with RNase and proteinase K and de-crosslinked as input samples.
# ChIP DNA (n = 2 for each antibody in each condition) was used to make sequence libraries using NEBNext Ultra II DNA library Prep kit for the Illumina (New England Biolabs, Ipswich, MA, USA). Library quality was checked using the Agilent Bioanalyzer 2100 (Agilent Technologies, Santa Clara, CA, USA) and then libraries were run on an Illumina Hiseq XTen (Illumina, San Diego, CA, USA).
# ChIP-seq clean reads were obtained from raw reads by the removal of adaptors and low-quality reads. The clean reads were aligned to the human genome (hg38) using Bowtie2 (version 2.4.2). The levels of histone modification at gene promoters were estimated by counting the numbers of reads mapped within a 2-kb region around the transcriptional start site using MACS2 [30] and HOMER [31]. Differential analysis of peaks and generation of heatmap were performed using BEDtools v2.30.0 [32]. HOMER was used to annotate ChIP-seq peaks for genomic location and link these peaks to nearby genes. TF binding motif analysis was performed using HOMER. BEDtools was used to obtain overlap peaks with super-enhancers and H3K4me2 peaks. Furthermore, we used our deposited GSC316 H3K27ac ChIP-seq data (GSE178471) and identified super-enhancers by the Rank Ordering of Super Enhancer (ROSE) algorithm. From this analysis, we identified 672 super-enhancers.
# To precisely evaluate the effects of S2172 on histone modifications at a genome-wide scale, we performed ChIP-seq analysis in GSC1228 cells treated with either DMSO or S2172. […]
smiles,measurement,setting,value
NC1CCC(NC2CC2c2cc(F)cc(F)c2OCc2ccccc2)CC1 (stereo not shown) [S2172],tumor area (MRI; HE-stained tissue images),"[1]; 10 mg/kg intravenously five times a week for three weeks, P < 0.05 MRI, P < 0.01 HE",significantly smaller
same,protein levels of Nestin and SOX2 in tumor tissues,[1]; after one week of treatment,decreased
same,H3K4me2 level in tumor regions,"[1]; after one week of treatment, P < 0.01",increased
same,de novo H3K4me3 regions after treatment,GSC1228 cells,2582 regions
same,new H3K4me2 regions (de novo regions) after treatment,GSC1228 cells,"20,085 regions"
same,regions already modified by H3K4me2 with increased H3K4me2 after treatment,GSC1228 cells,"25,326 regions"
same,regions from which H3K4me2 was lost after treatment,GSC1228 cells,5788 regions
